Active and inactive are the calls of the source. No cut-off for these calls is given here.
Legend:
Rattus norvegicus [1] = test: Antiimplantation activity in Sprague-Dawley rat uterus at 10 mg/kg, po for 7 days measured on day 11; format: functional
[2] = target: T1, Estrogen receptor (Rattus norvegicus) (UniProt P06211); test: Displacement of [3H]estradiol from estrogen receptor in uterine cytosol of estradiol primed rat relative to estradiol; conditions: Uterus
T1 sequence (whole entry): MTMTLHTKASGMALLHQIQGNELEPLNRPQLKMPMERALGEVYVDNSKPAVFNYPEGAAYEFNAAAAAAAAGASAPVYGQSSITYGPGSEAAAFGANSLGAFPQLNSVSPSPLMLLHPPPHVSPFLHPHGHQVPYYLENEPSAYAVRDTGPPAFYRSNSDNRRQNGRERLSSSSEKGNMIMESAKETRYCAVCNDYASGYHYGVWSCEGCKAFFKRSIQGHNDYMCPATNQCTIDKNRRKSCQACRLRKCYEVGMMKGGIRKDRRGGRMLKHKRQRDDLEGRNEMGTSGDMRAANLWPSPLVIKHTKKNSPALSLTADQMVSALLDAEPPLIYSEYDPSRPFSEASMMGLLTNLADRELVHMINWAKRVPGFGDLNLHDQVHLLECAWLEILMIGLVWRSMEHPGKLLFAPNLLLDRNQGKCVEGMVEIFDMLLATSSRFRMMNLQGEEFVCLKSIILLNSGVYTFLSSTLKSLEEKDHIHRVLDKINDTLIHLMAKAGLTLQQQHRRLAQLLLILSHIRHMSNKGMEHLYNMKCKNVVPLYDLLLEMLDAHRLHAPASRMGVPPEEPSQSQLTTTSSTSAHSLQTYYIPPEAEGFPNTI

Rattus norvegicus [3] = test: Estrogenic activity in ovariectomised Sprague-Dawley rat assessed as uterine weight gain at 10 mg/kg, po once daily for three days after 24 hrs of last treatment relative to control; format: functional
Rattus norvegicus [4] = test: Antiestrogenic activity in ovariectomised Sprague-Dawley rat assessed as inhibition of estradiol-induced uterine weight at 10 mg/kg, po once daily for three days measured on day 4 relative to control; format: functional
Rattus norvegicus [5] = test: Antiimplantation activity in Sprague-Dawley rat uterus at 5 mg/kg, po for 7 days measured on day 11; format: functional

Compound	RBA [2]	Activity (Rattus norvegicus [1])	Activity (Rattus norvegicus [3])	inhibition in vivo at 10 mg/kg (Rattus norvegicus [4])	Activity (Rattus norvegicus [5])
c1ccc2c(c1)CCCc1c-2n(CCc2nnn(CCN3CCCCC3)n2)c2ccccc12	0.011%	inactive	–	–	–
c1ccc2c(c1)SCCc1c-2n(CCc2nnnn2CCN2CCCCC2)c2ccccc12	< 0.001%	inactive	23%	2%	–
c1ccc2c(c1)CCCc1c-2n(CCc2nnnn2CCN2CCCC2)c2ccccc12	0.0125%	67%	61%	7%	–
c1ccc2c(c1)OCCc1c-2n(CCc2nnnn2CCN2CCCC2)c2ccccc12	< 0.001%	inactive	40%	–	–
c1ccc2c(c1)OCCc1c-2n(CCc2nnnn2CCN2CCCCC2)c2ccccc12	< 0.001%	inactive	44%	1%	–
c1ccc2c(c1)CCCc1c-2n(CCc2nnnn2CCN2CCCCC2)c2ccccc12	< 0.001%	inactive	40%	–	–

More lines, main results first:

RBA [2]	Compound	Activity (Rattus norvegicus [1])	Activity (Rattus norvegicus [3])	inhibition in vivo at 10 mg/kg (Rattus norvegicus [4])	Activity (Rattus norvegicus [5])
< 0.001%	c1ccc2c(c1)SCCc1c-2n(CCc2nnnn2CCN2CCCC2)c2ccccc12	inactive	39%	–	–
0.16%	c1ccc2c(c1)CCCc1c-2n(CCc2nnn(CCN3CCCC3)n2)c2ccccc12	100%	33%	3%	67%
< 0.001%	c1ccc2c(c1)SCCc1c-2n(CCc2nnn(CCN3CCCC3)n2)c2ccccc12	inactive	25%	1%	–
0.04%	c1ccc2c(c1)OCCc1c-2n(CCc2nnn(CCN3CCCC3)n2)c2ccccc12	inactive	29%	12%	–
0.0125%	c1ccc2c(c1)SCCc1c-2n(CCc2nnn(CCN3CCCCC3)n2)c2ccccc12	inactive	–	6%	–
0.011%	c1ccc2c(c1)OCCc1c-2n(CCc2nnn(CCN3CCCCC3)n2)c2ccccc12	inactive	28%	–	–

Reference: ChEMBL document CHEMBL1158177, “Synthesis and structure guided evaluation of estrogen agonist and antagonist activities of some new tetrazolyl indole derivatives” (2008)
